Test results: patent publication US4800211A, “5-methylthio-3-hydroxybenzo [b]thiophene-2-carboxamide derivatives as cyclooxygenase and lipoxygenase inhibitors” (Merck & Co., Inc., priority 1986, dated 1989)
Where two headings read alike, the source gives them in different places.

How the values were obtained:
PAF-induced hyperalgesia = assay: Platelet Activating Factor-Induced Hyperalgesia in the Rat; format: in vivo, rat (female Sprague-Dawley); conditions: for effect in the PAF-induced hyperalgesia assay (in words): pain response to PAF, rat; for % Analgesia (percentage of animals with vocalization threshold greater than 200 of vehicle-treated controls): Table 1, 30 min before PAF, readings 3 hours after PAF
Description: In this assay, which is sensitive to inhibition by lipoxygenase inhibitors, but not cyclooxygenase inhibitors, compounds of formula (I) reduced the pain response to PAF (Table 1).
Groups of 10 female Sprague-Dawley rats, 35-50 g (Taconic Farms), were fasted overnight prior to testing. Hyperalgesia was induced in the rat by the subplantar injection of 1 ug PAF in physiological saline. Pain threshold was measured by applying pressure to the plantar surface of the hindpaw by means of a compressed air driven piston with a 2 mm tip. Vocalization thresholds were obtained 3 hr after injection of the PAF. Compounds, prepared at various doses in 1% methylcellulose suspension, were administered perorally 30 min before PAF. For each drug treatment group, animals with response pressures in the inflamed paw of 200% of control was considered to be analgesic. The mean vocalization threshold for each group was also calculated.

[1] = test system: microsomal ram vesicular gland cyclooxygenase; assay: Inhibition of microsomal ram vesicular gland cyclooxygenase; format: biochemical
From the text: The protocol for measuring inhibition of this prostaglandin-producing enzyme has been published.

[2] = target: T1, RBL-1 cell 5-lipoxygenase (Rattus norvegicus, UniProt P12527); assay: Inhibition of RBL-1 Cell 5-Lipoxygenase (5-HETE formation); format: biochemical; conditions: read-out: Percent Inhibition
T1 construct: measured in vitro against the RBL-1 cell 5-lipoxygenase; endogenous in cells; host or cells: RBL-1 cells
T1 sequence (P12527 1-673): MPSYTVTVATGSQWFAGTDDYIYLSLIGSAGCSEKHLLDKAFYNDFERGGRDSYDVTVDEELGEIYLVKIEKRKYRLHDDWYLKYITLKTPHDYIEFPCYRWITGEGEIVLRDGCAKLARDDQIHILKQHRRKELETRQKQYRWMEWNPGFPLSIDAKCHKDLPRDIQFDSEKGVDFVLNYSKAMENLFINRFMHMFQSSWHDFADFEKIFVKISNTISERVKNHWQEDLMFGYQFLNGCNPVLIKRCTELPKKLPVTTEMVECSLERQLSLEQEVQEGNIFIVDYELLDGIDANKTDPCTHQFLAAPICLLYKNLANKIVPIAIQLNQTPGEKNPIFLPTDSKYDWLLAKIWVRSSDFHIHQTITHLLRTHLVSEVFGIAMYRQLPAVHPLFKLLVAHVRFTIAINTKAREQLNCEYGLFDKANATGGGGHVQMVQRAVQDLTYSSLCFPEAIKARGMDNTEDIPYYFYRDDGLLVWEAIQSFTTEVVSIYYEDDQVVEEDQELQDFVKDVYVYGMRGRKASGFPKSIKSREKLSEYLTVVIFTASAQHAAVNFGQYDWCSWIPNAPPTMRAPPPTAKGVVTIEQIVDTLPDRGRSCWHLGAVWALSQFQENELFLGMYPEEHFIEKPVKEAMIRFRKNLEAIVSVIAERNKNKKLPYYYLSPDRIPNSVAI
Description: The ability of the compound of Formula I, e.g., Compound A, to inhibit leukotriene biosynthesis was also measured in vitro against the RBL-1 cell 5-lipoxygenase. The protocol for measuring inhibition of 5-HETE formation has been published in R. W. Egan et al., "Advances in Prostaglandin, Thromboxane, and leukotriene Research", Vol. 11 (edited by B. Samuelsson et al., Raven Press, N.Y., 1983), p. 151.

[3] = Rattus norvegicus, po, 3 h, read-out: % Rats Exhibiting Analgesia
[4] = Rattus norvegicus, Platelet, po, 3 h, Table 2, 30 mg/kg p.o., read-out: % Rats Exhibiting Analgesia

Structure (SMILES)	responders at 30 mg/kg (PAF-induced hyperalgesia; [4])	effect in the PAF-induced hyperalgesia assay (in words) (PAF-induced hyperalgesia)	other results
CC(=O)Oc1ccccc1C(=O)O [Aspirin]			responders at 100 mg/kg (PAF-induced hyperalgesia; [3]): 10%
CC(C(=O)O)c1ccc2oc(-c3ccc(Cl)cc3)nc2c1 (centres unmarked) [Benoxaprofen]	10%	completely ineffective	
CSc1ccc2sc(C(=O)Nc3cccc(Cl)c3)c(O)c2c1 [Compound A, --N--(3chlorophenyl)-3-hydroxy-5-(methylthio)benzo[b]thiophene2-carbxamide]	90%		Percent Inhibition [1]: 95%; % Analgesia (percentage of animals with vocalization threshold greater than 200 of vehicle-treated controls) (PAF-induced hyperalgesia; 30 mg/kg p.o.): 90%; inhibition at 0.5 µg/mL ([2]; 0.5 ug/ml): 48%; inhibition at 1 µg/mL ([2]; 1 ug/ml): 58%; inhibition at 2 µg/mL ([2]; 2 ug/ml): 74%; inhibition at 10 µg/mL ([2]; 10 ug/ml): 83%
CSc1ccc2sc(C(=O)NCc3ccccc3)c(O)c2c1 [Compound B, 3Hydroxy-5-(methylthio)---N--(phenylmethyl)benzo[b]thiophene2-carboxmide]			% Analgesia (percentage of animals with vocalization threshold greater than 200 of vehicle-treated controls) (PAF-induced hyperalgesia; 30 mg/kg p.o.): 80%
O=C(O)c1cc(-c2ccc(F)cc2F)ccc1O [Diflunisal]	10%		
CC(C)Cc1ccc(C(C)C(=O)O)cc1 (centres unmarked) [Ibuprofen]	10%	completely ineffective	
COc1ccc2c(c1)c(CC(=O)O)c(C)n2C(=O)c1ccc(Cl)cc1 [Indomethacin]		completely ineffective	responders at 10 mg/kg (PAF-induced hyperalgesia; [3]): 10%
COc1ccc2cc([C@H](C)C(=O)O)ccc2c1 [Naproxen]			responders at 30 mg/kg (PAF-induced hyperalgesia; [3]): 10%
CN1C(C(=O)Nc2ccccn2)=C(O)c2ccccc2S1(=O)=O [Piroxicam]	0%	completely ineffective	
CC1=C(CC(=O)O)c2cc(F)ccc2/C1=C\c1ccc([S+](C)[O-])cc1 (centres unmarked) [Sulindac]	10%		
